Laboratory results published in the supplement of paper PMC10307832.

Key:
Test in all cases: relative viability (nuclei count vs DMSO), 5 days (fraction); higher = more cells survive
[1] = compound: C[C@@H](C(=O)N[C@@H](C1CCCCC1)C(=O)N2CCC[C@H]2C(=O)N[C@@H]3[C@@H](CC4=CC=CC=C34)OCC#CC#CCO[C@@H]5CC6=CC=CC=C6[C@@H]5NC(=O)[C@@H]7CCCN7C(=O)[C@H](C8CCCCC8)NC(=O)[C@H](C)NC)NC [AZD5582] + COc1cccc2cc(-c3nc([C@H]4CC[C@H](C(=O)O)CC4)n4ncnc(N)c34)[nH]c12 [OSI-027] (partner 0.5 µM)
Procedure, shortened: (§1)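 Lung cancer cell lines, seeded in 1536-well plates, were treated the following day by pin tool with a single drug or with five library-drug doses (not always all listed) in √10 steps on top of a fixed anchor-drug dose. Cells were fixed and nuclei stained in one step after 5 days, and nuclei were counted. Relative viability is the nuclei count for treated wells divided by that for vehicle wells, reported as medians of duplicate plates.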

[2] = compound: Cn1nnc2c(C(N)=O)ncn2c1=O [Temozolomide] + Nc1nc2[nH]cc(CCc3ccc(C(=O)N[C@@H](CCC(=O)O)C(=O)O)cc3)c2c(=O)[nH]1 [Pemetrexed] (partner 0.2 µM)
Procedure, shortened: as §1

[3] = compound: C[C@@H](C(=O)N[C@@H](C1CCCCC1)C(=O)N2CCC[C@H]2C(=O)N[C@@H]3[C@@H](CC4=CC=CC=C34)OCC#CC#CCO[C@@H]5CC6=CC=CC=C6[C@@H]5NC(=O)[C@@H]7CCCN7C(=O)[C@H](C8CCCCC8)NC(=O)[C@H](C)NC)NC [AZD5582]
Procedure, shortened: (§2)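 Five library-drug doses, separated by factors of √10, were pinned into 1536-well plates holding lung cancer cell lines after an overnight stay at 37 °C. Cells were fixed, permeabilised and Hoechst-stained in one step after 5 days without medium change, then imaged at 4×. Viability compares treated-well with vehicle-well nuclei, counted in MetaXpress, as a median across plates. Passing plates had control CV below 25% and at least one doubling.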

[4] = compound: Cn1nnc2c(C(N)=O)ncn2c1=O [Temozolomide]
Procedure, shortened: as §2

NCI-H1755
relative viability ([1]; first compound 0.001581 µM): 0.567
relative viability ([1]; first compound 0.005 µM): 0.673
relative viability ([1]; first compound 0.01581 µM): 0.58
relative viability ([1]; first compound 0.05 µM): 0.659
relative viability ([2]; first compound 0.2 µM): 0.433
relative viability ([2]; first compound 0.6325 µM): 0.43
relative viability ([2]; first compound 2 µM): 0.388
relative viability ([2]; first compound 6.325 µM): 0.39
relative viability ([2]; first compound 20 µM): 0.612
relative viability ([3]; 0.001581 µM): 0.939
relative viability ([3]; 0.005 µM): 0.99
relative viability ([3]; 0.01581 µM): 0.946
relative viability ([3]; 0.05 µM): 1.05
relative viability ([4]; 0.2 µM): 1.08
relative viability ([4]; 0.6325 µM): 0.971
relative viability ([4]; 2 µM): 1.04
relative viability ([4]; 6.325 µM): 0.965
relative viability ([4]; 20 µM): 0.818

NCI-H1792
relative viability ([1]; first compound 0.001581 µM): 0.679
relative viability ([1]; first compound 0.005 µM): 0.872
relative viability ([1]; first compound 0.01581 µM): 0.73
relative viability ([1]; first compound 0.05 µM): 1.06
relative viability ([2]; first compound 0.2 µM): 1.11
relative viability ([2]; first compound 0.6325 µM): 0.993
relative viability ([2]; first compound 2 µM): 0.954
relative viability ([2]; first compound 6.325 µM): 0.819
relative viability ([2]; first compound 20 µM): 1.01
relative viability ([3]; 0.001581 µM): 0.754
relative viability ([3]; 0.005 µM): 0.971
relative viability ([3]; 0.01581 µM): 0.712
relative viability ([3]; 0.05 µM): 1.21
relative viability ([4]; 0.2 µM): 1.22
relative viability ([4]; 0.6325 µM): 1.02
relative viability ([4]; 2 µM): 1.07
relative viability ([4]; 6.325 µM): 0.854
relative viability ([4]; 20 µM): 1.07

NCI-H1793
relative viability ([1]; first compound 0.001581 µM): 0.2
relative viability ([1]; first compound 0.005 µM): 0.301
relative viability ([1]; first compound 0.01581 µM): 0.212
relative viability ([1]; first compound 0.05 µM): 0.185
relative viability ([2]; first compound 0.6325 µM): 1.19
relative viability ([2]; first compound 2 µM): 1.03
relative viability ([2]; first compound 6.325 µM): 0.718
relative viability ([2]; first compound 20 µM): 0.792
relative viability ([3]; 0.001581 µM): 0.897
relative viability ([3]; 0.005 µM): 1.05
relative viability ([3]; 0.01581 µM): 0.822
relative viability ([3]; 0.05 µM): 0.797
relative viability ([4]; 0.6325 µM): 0.919
relative viability ([4]; 2 µM): 0.918
relative viability ([4]; 6.325 µM): 0.87
relative viability ([4]; 20 µM): 0.636

NCI-H1915
relative viability ([1]; first compound 0.001581 µM): 0.559
relative viability ([1]; first compound 0.005 µM): 0.64
relative viability ([1]; first compound 0.01581 µM): 0.475
relative viability ([1]; first compound 0.05 µM): 0.627
relative viability ([2]; first compound 0.2 µM): 0.55
relative viability ([2]; first compound 0.6325 µM): 0.491
relative viability ([2]; first compound 2 µM): 0.545
relative viability ([2]; first compound 6.325 µM): 0.429
relative viability ([2]; first compound 20 µM): 0.321
relative viability ([3]; 0.001581 µM): 0.899
relative viability ([3]; 0.005 µM): 1
relative viability ([3]; 0.01581 µM): 0.805
relative viability ([3]; 0.05 µM): 0.947
relative viability ([4]; 0.2 µM): 1.09
relative viability ([4]; 0.6325 µM): 0.987
relative viability ([4]; 2 µM): 0.946
relative viability ([4]; 6.325 µM): 0.602
relative viability ([4]; 20 µM): 0.386

NCI-H1944
relative viability ([1]; first compound 0.001581 µM): 0.369
relative viability ([1]; first compound 0.005 µM): 0.428
relative viability ([1]; first compound 0.01581 µM): 0.412
relative viability ([1]; first compound 0.05 µM): 0.446
relative viability ([2]; first compound 0.2 µM): 0.546
relative viability ([2]; first compound 0.6325 µM): 0.601
relative viability ([2]; first compound 2 µM): 0.564
relative viability ([2]; first compound 6.325 µM): 0.58
relative viability ([2]; first compound 20 µM): 0.623
relative viability ([3]; 0.001581 µM): 0.867
relative viability ([3]; 0.005 µM): 1.04
relative viability ([3]; 0.01581 µM): 0.921
relative viability ([3]; 0.05 µM): 1.01
relative viability ([4]; 0.2 µM): 0.946
relative viability ([4]; 0.6325 µM): 0.959
relative viability ([4]; 2 µM): 1.04
relative viability ([4]; 6.325 µM): 0.919
relative viability ([4]; 20 µM): 0.816

NCI-H1975
relative viability ([1]; first compound 0.001581 µM): 0.688
relative viability ([1]; first compound 0.005 µM): 0.956
relative viability ([1]; first compound 0.01581 µM): 0.829
relative viability ([1]; first compound 0.05 µM): 0.9
relative viability ([2]; first compound 0.2 µM): 0.307
relative viability ([2]; first compound 0.6325 µM): 0.323
relative viability ([2]; first compound 2 µM): 0.319
relative viability ([2]; first compound 6.325 µM): 0.299
relative viability ([2]; first compound 20 µM): 0.289
relative viability ([3]; 0.001581 µM): 1
relative viability ([3]; 0.005 µM): 1.13
relative viability ([3]; 0.01581 µM): 0.944
relative viability ([3]; 0.05 µM): 1.2
relative viability ([4]; 0.2 µM): 1.01
relative viability ([4]; 0.6325 µM): 1.01
relative viability ([4]; 2 µM): 1.09
relative viability ([4]; 6.325 µM): 0.919
relative viability ([4]; 20 µM): 0.957

NCI-H1993
relative viability ([1]; first compound 0.001581 µM): 0.503
relative viability ([1]; first compound 0.005 µM): 0.541
relative viability ([1]; first compound 0.01581 µM): 0.547
relative viability ([1]; first compound 0.05 µM): 0.541
relative viability ([2]; first compound 0.2 µM): 0.517
relative viability ([2]; first compound 0.6325 µM): 0.669
relative viability ([2]; first compound 2 µM): 0.598
relative viability ([2]; first compound 6.325 µM): 0.569
relative viability ([2]; first compound 20 µM): 0.525
relative viability ([3]; 0.001581 µM): 0.758
relative viability ([3]; 0.005 µM): 1.1
relative viability ([3]; 0.01581 µM): 0.957
relative viability ([3]; 0.05 µM): 1
relative viability ([4]; 0.2 µM): 0.866
relative viability ([4]; 0.6325 µM): 0.968
relative viability ([4]; 2 µM): 0.953
relative viability ([4]; 6.325 µM): 0.944
relative viability ([4]; 20 µM): 0.758

NCI-H2009
relative viability ([1]; first compound 0.001581 µM): 0.536
relative viability ([1]; first compound 0.005 µM): 0.73
relative viability ([1]; first compound 0.01581 µM): 0.448
relative viability ([1]; first compound 0.05 µM): 0.48
relative viability ([2]; first compound 0.2 µM): 1.08
relative viability ([2]; first compound 0.6325 µM): 1.06
relative viability ([2]; first compound 2 µM): 1.05
relative viability ([2]; first compound 6.325 µM): 1.08
relative viability ([2]; first compound 20 µM): 1.04
relative viability ([3]; 0.001581 µM): 0.916
relative viability ([3]; 0.005 µM): 1.09
relative viability ([3]; 0.01581 µM): 0.943
relative viability ([3]; 0.05 µM): 0.988
relative viability ([4]; 0.2 µM): 1.05
relative viability ([4]; 0.6325 µM): 1.01
relative viability ([4]; 2 µM): 1.05
relative viability ([4]; 6.325 µM): 0.923
relative viability ([4]; 20 µM): 1.06
